Literature values, collected in patent publication US20180055969A1, “BIPHASIC CERAMIC BONE SUBSTITUTE” (BONE SUPPORT AB, priority 2015, published 2018).

Tested on: bone resorption
Conditions: for potency relative to etidronate: value in parenthesis, etidronate as reference; for potency compared with etidronate: times as potent as etidronate

SMILES | potency relative to etidronate | potency compared with etidronate
O=P(O)(O)C(O)(Cc1cccnc1)P(=O)(O)O [risedronate] | 2000 | –
O=P(O)(O)C(O)(Cn1ccnc1)P(=O)(O)O [zoledronate] | 10000 | up to 10.000 times
O=P(O)(O)C(Cl)(Cl)P(=O)(O)O [Clodronate, clodronate] | – | 10 times
CCCCCN(C)CCC(O)(P(=O)(O)O)P(=O)(O)O [ibandronate] | 1000 | –
CN(C)CCC(O)(P(=O)(O)O)P(=O)(O)O [olpadronate] | 500 | –
O=P(O)(O)C(Sc1ccc(Cl)cc1)P(=O)(O)O [tiludronate] | – | 10 times
NCCC(O)(P(=O)(O)O)P(=O)(O)O [pamidronate] | 100 | –
NCCCCCC(O)(P(=O)(O)O)P(=O)(O)O [neridronate] | 100 | –
NCCCC(O)(P(=O)(O)O)P(=O)(O)O [alendronate] | 500 | 10-100 times
